Assay results as given in the supplement of paper PMC10307832.

How the values were obtained:
Experiment in all cases: relative viability (nuclei count vs DMSO), 5 days (fraction); higher = more cells survive
[1] = test system: NCI-H1651
Outline: (§1)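 After 5 days of treatment, lung cancer cells in 1536-well plates were fixed and stained in a single step (final 0.05% Triton X-100, 1% formaldehyde, 1 ug/ml Hoechst) and their nuclei counted on 4× images. Treatment had been applied by pin tool the day after seeding as one drug alone or as a fixed anchor-drug dose with five library-drug doses (not always all listed) in √10 steps. Relative viability is the nuclei count of treated wells divided by that of vehicle wells, and values are medians of duplicate plates.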

[2] = test system: HCC-15
Outline: as §1

[3] = test system: BEN
Outline: as §1

[4] = test system: 201T
Outline: as §1

[5] = test system: NCI-H322M
Outline: as §1

[6] = test system: RERF-LC-KJ
Outline: as §1

[7] = test system: HARA
Outline: as §1

[8] = test system: COR-L 105
Outline: as §1

[9] = test system: NCI-H1437
Outline: as §1

[10] = test system: NCI-H2405
Outline: as §1

[11] = test system: NCI-H2085
Outline: as §1

[12] = test system: LCLC-103H
Outline: as §1

[13] = test system: LK-2
Outline: as §1

[14] = test system: NCI-H1792
Outline: as §1

[15] = test system: LU99A
Outline: as §1

[16] = test system: LC-2-ad
Outline: as §1

[17] = test system: H3255
Outline: as §1

[18] = test system: HCC-827
Outline: as §1

[19] = test system: UMC-11
Outline: as §1

[20] = test system: NCI-H23
Outline: as §1

[21] = test system: LXF-289
Outline: as §1

## O=C(O)CCCCC(CCSCc1ccccc1)SCc1ccccc1 (stereo not given) [CPI-613] + Nc1ncn([C@H]2C[C@H](O)[C@@H](CO)O2)c(=O)n1 [Decitabine] (partner 2 µM)
[1]; first compound 5 µM
  relative viability: 0.625
[1]; first compound 15.81 µM
  relative viability: 0.504
[1]; first compound 50 µM
  relative viability: 0.661
[1]; first compound 158.11 µM
  relative viability: 0.523
[1]; first compound 500 µM
  relative viability: 0.562
[2]; first compound 5 µM
  relative viability: 0.594
[2]; first compound 15.81 µM
  relative viability: 0.592
[2]; first compound 50 µM
  relative viability: 0.547
[2]; first compound 158.11 µM
  relative viability: 0.265
[2]; first compound 500 µM
  relative viability: 0.0057
[3]; first compound 5 µM
  relative viability: 0.773
[3]; first compound 15.81 µM
  relative viability: 0.649
[3]; first compound 50 µM
  relative viability: 0.802
[3]; first compound 158.11 µM
  relative viability: 0.625
[3]; first compound 500 µM
  relative viability: 0.608
[4]; first compound 5 µM
  relative viability: 0.848
[4]; first compound 15.81 µM
  relative viability: 0.778
[4]; first compound 50 µM
  relative viability: 0.841
[4]; first compound 158.11 µM
  relative viability: 0.194
[4]; first compound 500 µM
  relative viability: 0.211
[5]; first compound 5 µM
  relative viability: 0.65
[5]; first compound 15.81 µM
  relative viability: 0.656
[5]; first compound 50 µM
  relative viability: 0.664
[5]; first compound 158.11 µM
  relative viability: 0.767
[5]; first compound 500 µM
  relative viability: 0.703
[6]; first compound 5 µM
  relative viability: 0.663
[6]; first compound 15.81 µM
  relative viability: 0.619
[6]; first compound 50 µM
  relative viability: 0.643
[6]; first compound 158.11 µM
  relative viability: 0.272
[6]; first compound 500 µM
  relative viability: 0.199
[7]; first compound 5 µM
  relative viability: 0.494
[7]; first compound 15.81 µM
  relative viability: 0.467
[7]; first compound 50 µM
  relative viability: 0.575
[7]; first compound 158.11 µM
  relative viability: 0.289
[7]; first compound 500 µM
  relative viability: 0.111
[8]; first compound 5 µM
  relative viability: 0.68
[8]; first compound 15.81 µM
  relative viability: 0.671
[8]; first compound 50 µM
  relative viability: 0.668
[8]; first compound 158.11 µM
  relative viability: 0.375
[8]; first compound 500 µM
  relative viability: 0.22
[9]; first compound 5 µM
  relative viability: 0.491
[9]; first compound 15.81 µM
  relative viability: 0.542
[9]; first compound 50 µM
  relative viability: 0.567
[9]; first compound 158.11 µM
  relative viability: 0.207
[9]; first compound 500 µM
  relative viability: 0.0486
[10]; first compound 5 µM
  relative viability: 0.754
[10]; first compound 15.81 µM
  relative viability: 0.72
[10]; first compound 50 µM
  relative viability: 0.709
[10]; first compound 158.11 µM
  relative viability: 0.674
[10]; first compound 500 µM
  relative viability: 0.535
[11]; first compound 5 µM
  relative viability: 0.536
[11]; first compound 15.81 µM
  relative viability: 0.525
[11]; first compound 50 µM
  relative viability: 0.568
[11]; first compound 158.11 µM
  relative viability: 0.437
[11]; first compound 500 µM
  relative viability: 0.208
[12]; first compound 5 µM
  relative viability: 0.753
[12]; first compound 15.81 µM
  relative viability: 0.77
[12]; first compound 50 µM
  relative viability: 0.714
[12]; first compound 158.11 µM
  relative viability: 0.29
[12]; first compound 500 µM
  relative viability: 0.288
[13]; first compound 5 µM
  relative viability: 0.336
[13]; first compound 15.81 µM
  relative viability: 0.274
[13]; first compound 50 µM
  relative viability: 0.275
[13]; first compound 158.11 µM
  relative viability: 0.313
[13]; first compound 500 µM
  relative viability: 0.283
[14]; first compound 5 µM
  relative viability: 0.571
[14]; first compound 15.81 µM
  relative viability: 0.449
[14]; first compound 50 µM
  relative viability: 0.572
[14]; first compound 158.11 µM
  relative viability: 0.253
[14]; first compound 500 µM
  relative viability: 0.0627
[15]; first compound 5 µM
  relative viability: 0.886
[15]; first compound 15.81 µM
  relative viability: 0.79
[15]; first compound 50 µM
  relative viability: 0.815
[15]; first compound 158.11 µM
  relative viability: 0.79
[15]; first compound 500 µM
  relative viability: 0.219
[16]; first compound 5 µM
  relative viability: 0.781
[16]; first compound 15.81 µM
  relative viability: 0.859
[16]; first compound 50 µM
  relative viability: 0.705
[16]; first compound 158.11 µM
  relative viability: 0.578
[16]; first compound 500 µM
  relative viability: 0.0132
[17]; first compound 5 µM
  relative viability: 0.626
[17]; first compound 15.81 µM
  relative viability: 0.537
[17]; first compound 50 µM
  relative viability: 0.665
[17]; first compound 158.11 µM
  relative viability: 0.566
[17]; first compound 500 µM
  relative viability: 0.569
[18]; first compound 5 µM
  relative viability: 0.363
[18]; first compound 15.81 µM
  relative viability: 0.31
[18]; first compound 50 µM
  relative viability: 0.359
[18]; first compound 158.11 µM
  relative viability: 0.301
[18]; first compound 500 µM
  relative viability: 0.29
[19]; first compound 5 µM
  relative viability: 0.574
[19]; first compound 15.81 µM
  relative viability: 0.573
[19]; first compound 50 µM
  relative viability: 0.611
[19]; first compound 158.11 µM
  relative viability: 0.562
[19]; first compound 500 µM
  relative viability: 0.544
[20]; first compound 5 µM
  relative viability: 0.34
[20]; first compound 15.81 µM
  relative viability: 0.321
[20]; first compound 50 µM
  relative viability: 0.326
[20]; first compound 158.11 µM
  relative viability: 0.155
[20]; first compound 500 µM
  relative viability: 0.0289
[21]; first compound 5 µM
  relative viability: 0.369
[21]; first compound 15.81 µM
  relative viability: 0.375
[21]; first compound 50 µM
  relative viability: 0.365
[21]; first compound 158.11 µM
  relative viability: 0.272
[21]; first compound 500 µM
  relative viability: 0.0864
